Laboratory results reported in patent US9273067B2, “Pyrazolopyrimidine macrocycles as inhibitors of human immunodeficiency virus replication” (BRISTOL-MYERS SQUIBB COMPANY, priority 2014, dated 2016).
Where two headings read alike, the source gives them in different places.

System: NL-RLuc virus (recombinant HIV NL4-3 with Renilla Luciferase) in MT-2 cells
Assay: Inhibition of HIV replication (NL-RLuc virus in MT-2 cells, luciferase readout)
Assay type: cell-based, human immunodeficiency virus (HIV)
Source text: Inhibition of HIV Replication:
A recombinant NL-RLuc proviral clone was constructed in which a section of the nef gene from NL4-3 was replaced with the Renilla Luciferase gene. This virus is fully infectious and can undergo multiple cycles of replication in cell culture. In addition, the luciferous reporter provides a simple and easy method for quantitating the extent of virus growth and consequently, the antiviral activity of test compounds. The plasmid pNLRLuc contains the proviral NL-Rluc DNA cloned into pUC 18 at the PvuII site. The NL-RLuc virus was prepared by transfection of 293T cells with the plasmid pNLRLuc. Transfections were performed using the LipofectAMINE PLUS kit from Invitrogen (Carlsbad, Calif.) according to the manufacturer and the virus generated was titered in MT-2 cells. For susceptibility analyses, the titrated virus was used to infect MT-2 cells in the presence of compound, and after 5 days of incubation, cells were processed and quantitated for virus growth by the amount of expressed luciferase. Assay media was RPMI 1640 supplemented with 10% heat inactivated fetal bovine serum (FBS), 100 units/ml penicillin G/100 units/ml streptomycin, 10 mM HEPES buffer pH 7.55 and 2 mM L-glutamine. The results from at least 2 experiments were used to calculate the EC50 values. Luciferase was quantitated using the Dual Luciferase kit from Promega (Madison, Wis.). Susceptibility of viruses to compounds was determined by incubation in the presence of serial dilutions of the compound. The 50% effective concentration (EC50) was calculated by using the exponential form of the median effect equation where (Fa)=1/[1+(ED50/drug conc.)^m] (Johnson V A, Byington R T. Infectivity Assay. In Techniques in HIV Research. ed. Aldovini A, Walker B D. 71-76. New York: Stockton Press. 1990).

[1] = NL-RLuc virus infecting MT-2 cells, 5 days of incubation, 10% FBS, luciferase quantitation, at least 2 experiments, read-out: EC50
[2] = MT2, 120 h, NL-RLuc virus infecting MT-2 cells, 5 days of incubation, 10% FBS, luciferase quantitation, at least 2 experiments

SMILES: Cc1nc2cc3nn2c(c1[C@H](OC(C)(C)C)C(=O)O)N1CCC(C)(CC1)O/C=C\CCc1ccccc1OC3 [Example 21, (2S)-2-(tert-Butoxy)-2-[(20Z)-4,23-dimethyl-11,22-dioxa-1,5,7,8-tetraazapentacyclo[21.2.2.1^6,^9.1^2,^7.0^12,^17]octacosa-2,4,6(28),8,12(17),13,15,20-octaen-3-yl]acetic acid]
- EC50 [1]: 646 nM

SMILES: Cc1nc2cc3nn2c(c1[C@H](OC(C)(C)C)C(=O)O)N1CCC(C)(CC1)OC/C=C\Cc1ccccc1OC3 [Example 22, (2S)-2-(tert-Butoxy)-2-[(19Z)-4,23-dimethyl-11,22-dioxa-1,5,7,8-tetraazapentacyclo[21.2.2.1^6,^9.1^2,^7.0^12,^17]octacosa-2,4,6(28),8,12(17),13,15,19-octaen-3-yl]acetic acid]
- EC50 [1]: 141 nM

SMILES: Cc1nc2cc3nn2c(c1[C@H](OC(C)(C)C)C(=O)O)N1CCC(C)(CC1)OCCCc1ccccc1COC3 [Example 23, (2S)-2-(tert-Butoxy)-2-{4,23-dimethyl-11,22-dioxa-1,5,7,8-tetraazapentacyclo[21.2.2.1^6,^9.0^2,^7.0^13,^18]octacosa-2,4,6(28),8,13(18),14,16-heptaen-3-yl}acetic acid]
- EC50 [2]: 11 nM

SMILES: Cc1nc2cc3nn2c(c1[C@H](OC(C)(C)C)C(=O)O)N1CCC(C)(CC1)OCCCCc1ccccc1COC3 [Example 24, (2S)-2-(tert-Butoxy)-2-{4,24-dimethyl-11,23-dioxa-1,5,7,8-tetraazapentacyclo[22.2.2.1^6,^9.0^2,^7.0^13,^18]nonacosa-2,4,6(29),8,13(18),14,16-heptaen-3-yl}acetic acid]
- EC50 [2]: 3 nM

SMILES: Cc1nc2cc3nn2c(c1[C@H](OC(C)(C)C)C(=O)O)N1CCC(C)(CC1)OCCCc1ccccc1CCC3 [Example 25, (2S)-2-(tert-Butoxy)-2-{4,23-dimethyl-22-oxa-1,5,7,8-tetraazapentacyclo[21.2.2.1^6,^9.0^2,^7.0^13,^18]octacosa-2,4,6(28),8,13(18),14,16-heptaen-3-yl}acetic acid]
- EC50 [2]: 31 nM

SMILES: Cc1nc2cc3nn2c(c1[C@H](OC(C)(C)C)C(=O)O)N1CCC(C)(CC1)OCC=Cc1cc(C(F)(F)F)ccc1COC3 [Example 26, (2S)-2-(tert-Butoxy)-2-[4,23-dimethyl-16-(trifluoromethyl)-11,22-dioxa-1,5,7,8-tetraazapentacyclo[21.2.2.1^6,^9.0^2,^7.0^13,^18]octacosa-2,4,6(28),8,13(18),14,16,19-octaen-3-yl]acetic acid]
- EC50 [2]: 32 nM

SMILES: Cc1nc2cc3nn2c(c1[C@H](OC(C)(C)C)C(=O)O)N1CCC(C)(CC1)OCCCC[C@H](C)Oc1ccc(F)cc1COC3 [Example 28, (2S)-2-(tert-Butoxy)-2-[(20S)-15-fluoro-4,20,26-trimethyl-11,19,25-trioxa-1,5,7,8-tetraazapentacyclo[24.2.2.1^6,^9.0^2,^7.0^13,^18]hentriaconta-2,4,6(31),8,13,15,17-heptaen-3-yl]acetic acid]
- EC50 [2]: 5 nM

SMILES: Cc1ccc2c(c1)COCc1cc3nc(C)c([C@H](OC(C)(C)C)C(=O)O)c(n3n1)N1CCC(C)(CC1)OCCCC[C@H](C)O2 [Example 30, (2S)-2-(tert-Butoxy)-2-[(20S)-4,15,20,26-tetramethyl-11,19,25-trioxa-1,5,7,8-tetraazapentacyclo[24.2.2.1^6,^9.0^2,^7.0^13,^18]hentriaconta-2,4,6(31),8,13,15,17-heptaen-3-yl]acetic]
- EC50 [2]: 64 nM

SMILES: Cc1nc2cc3nn2c(c1[C@H](OC(C)(C)C)C(=O)O)N1CCC(C)(CC1)OCCCC[C@H](C)Oc1cc(F)cc(F)c1COC3 [Example 32, (2S)-2-(tert-Butoxy)-2-[(20S)-14,16-difluoro-4,20,26-trimethyl-11,19,25-trioxa-1,5,7,8-tetraazapentacyclo[24.2.2.1^6,^9.0^2,^7.0^13,^18]hentriaconta-2,4,6(31),8,13,15,17-heptaen-3-yl]acetic acid]
- EC50 [2]: 3 nM

SMILES: Cc1nc2cc3nn2c(c1[C@H](OC(C)(C)C)C(=O)O)N1CCC(C)(CC1)OCC=CC[C@H](C)Oc1cc(F)c(F)cc1COC3 [Example 33, (2S)-2-(tert-Butoxy)-2-[(20S)-15,16-difluoro-4,20,26-trimethyl-11,19,25-trioxa-1,5,7,8-tetraazapentacyclo[24.2.2.1^6,^9.0^2,^7.0^13,^18]hentriaconta-2,4,6(31),8,13,15,17,22-octaen-3-yl]acetic acid]
- EC50 [2]: 6 nM

SMILES: Cc1nc2cc3nn2c(c1[C@H](OC(C)(C)C)C(=O)O)N1CCC(C)(CC1)OCCCC[C@H](C)Oc1cc(Cl)ccc1COC3 [Example 35, (2S)-2-(tert-Butoxy)-2-[(20S)-16-chloro-4,20,26-trimethyl-11,19,25-trioxa-1,5,7,8-tetraazapentacyclo[24.2.2.1^6,^9.0^2,^7.0^13,^18]hentriaconta-2,4,6(31),8,13,15,17-heptaen-3-yl]acetic acid]
- EC50 [2]: 2 nM

SMILES: Cc1ccc2c(c1)O[C@@H](C)C/C=C\COC1(C)CCN(CC1)c1c([C@H](OC(C)(C)C)C(=O)O)c(C)nc3cc(nn13)COC2 [Example 36, (2S)-2-(tert-Butoxy)-2-[(20S,22Z)-4,16,20,26-tetramethyl-11,19,25-trioxa-1,5,7,8-tetraazapentacyclo[24.2.2.1^6,^9.0^2,^7.0^13,^18]hentriaconta-2,4,6(31),8,13(18),14,16,22-octaen-3-yl]acetic acid]
- EC50 [1]: 3690 nM

SMILES: Cc1ccc2c(c1)O[C@@H](C)C/C=C/COC1(C)CCN(CC1)c1c([C@H](OC(C)(C)C)C(=O)O)c(C)nc3cc(nn13)COC2 [Example 37, (2S)-2-(tert-Butoxy)-2-[(20S,22E)-4,16,20,26-tetramethyl-11,19,25-trioxa-1,5,7,8-tetraazapentacyclo[24.2.2.1^6,^9.0^2,^7.0^13,^18]hentriaconta-2,4,6(31),8,13(18),14,16,22-octaen-3-yl]acetic acid]
- EC50 [1]: 4 nM

SMILES: Cc1ccc2c(c1)O[C@@H](C)CCCCOC1(C)CCN(CC1)c1c([C@H](OC(C)(C)C)C(=O)O)c(C)nc3cc(nn13)COC2 [Example 38, (2S)-2-(tert-Butoxy)-2-[(20S)-4,16,20,26-tetramethyl-11,19,25-trioxa-1,5,7,8-tetraazapentacyclo[24.2.2.1^6,^9.0^2,^7.0^13,^18]hentriaconta-2,4,6(31),8,13(18),14,16-heptaen-3-yl]acetic acid]
- EC50 [2]: 2 nM

SMILES: Cc1nc2cc3nn2c(c1[C@H](OC(C)(C)C)C(=O)O)N1CCC(C)(CC1)OCCCC[C@H](C)Oc1cc(F)ccc1CCC3 [Example 39, (2S)-2-(tert-Butoxy)-2-[(20S)-16-fluoro-4,20,26-trimethyl-19,25-dioxa-1,5,7,8-tetraazapentacyclo[24.2.2.1^6,^9.0^2,^7.0^13,^18]hentriaconta-2,4,6(31),8,13(18),14,16-heptaen-3-yl]acetic acid]
- EC50 [2]: 5 nM

SMILES: Cc1nc2cc3nn2c(c1[C@H](OC(C)(C)C)C(=O)O)N1CCC(C)(CC1)OCCCC[C@H](C)Oc1cc(F)ccc1CCC3 [Example 40, (2S)-2-(tert-Butoxy)-2-[(20S)-16-fluoro-4,20,26-trimethyl-19,25-dioxa-1,5,7,8-tetraazapentacyclo[24.2.2.1^6,^9.0^2,^7.0^13,^18]hentriaconta-2,4,6(31),8,13(18),14,16-heptaen-3-yl]acetic acid]
- EC50 [1]: 31 nM

SMILES: Cc1nc2cc3nn2c(c1[C@H](OC(C)(C)C)C(=O)O)N1CCC(C)(CC1)OCCCC[C@H](C)Oc1c(F)cc(F)cc1CCC3 [Example 41, (2S)-2-(tert-Butoxy)-2-[(20S)-15,17-difluoro-4,20,26-trimethyl-19,25-dioxa-1,5,7,8-tetraazapentacyclo[24.2.2.1^6,^9.0^2,^7.0^13,^18]hentriaconta-2,4,6(31),8,13(18),14,16-heptaen-3-yl]acetic acid]
- EC50 [2]: 10 nM

SMILES: Cc1nc2cc3nn2c(c1[C@H](OC(C)(C)C)C(=O)O)N1CCC(C)(CC1)OCCCC[C@H](C)Oc1ccc(F)c(F)c1CCC3 [Example 42, (2S)-2-(tert-Butoxy)-2-[(20S)-14,15-difluoro-4,20,26-trimethyl-19,25-dioxa-1,5,7,8-tetraazapentacyclo[24.2.2.1^6,^9.0^2,^7.0^13,^18]hentriaconta-2,4,6(31),8,13(18),14,16-heptaen-3-yl]acetic acid]
- EC50 [2]: 2 nM

SMILES: Cc1nc2cc3nn2c(c1[C@H](OC(C)(C)C)C(=O)O)N1CCC(C)(CC1)OCCCC[C@H](C)Oc1cc(F)c(F)cc1CCC3 [Example 43, (2S)-2-(tert-Butoxy)-2-[(20S)-15,16-difluoro-4,20,26-trimethyl-19,25-dioxa-1,5,7,8-tetraazapentacyclo[24.2.2.1^6,^9.0^2,^7.0^13,^18]hentriaconta-2,4,6(31),8,13(18),14,16-heptaen-3-yl]acetic acid]
- EC50 [2]: 1 nM

SMILES: CCCC1CCCCOC2(C)CCN(CC2)c2c([C@H](OC(C)(C)C)C(=O)O)c(C)nc3cc(nn23)COCc2ccc(C)cc2O1 (stereo partly drawn) [Example 44, (2S)-2-(tert-Butoxy)-2-{4,16,26-trimethyl-20-propyl-11,19,25-trioxa-1,5,7,8-tetraazapentacyclo[24.2.2.1^6,^9.0^2,^7.0^13,^18]hentriaconta-2,4,6(31),8,13(18),14,16-heptaen-3-yl}acetic acid]
- EC50 ({}): 5 nM
